Test results from patent publication US20140275280A1 (COYOTE PHARMACEUTICALS, INC., priority 2013, published 2014).

Columns and labels:
[1] = Pharmacological activity of GGA isomers (data of the examples, test not specified); settings: at low concentrations
IEC-18 cells = test: Protection of intestinal epithelial cells from NH2Cl-induced injury; type: cell-based, Rat; settings: pretreatment
Description: Cell viability is assessed, and endogenous HSP70 levels are determined by enzyme-linked immunosorbent assay in IEC-18 cells.

HL-1 cardiomyocytes = test: In vitro ischemia/reperfusion cardiac disease model; type: cell-based, murine; settings: HL-1 cells, nutrient-deficiency medium with 2.5 mM hydrogen peroxide
Description: Activity is assessed via apoptosis signaling, cell structure and energy-metabolism. The HL-1 cardiomyocytes (murine atrial tumor cell line) are maintained in monolayer culture with Claycomb-medium (Sigma, Germany), Heaving reached confluence and contractile activity, cells are maintained as subcultures. Induction of ischemia was carried out on vital cardiomyocytes at culture day four. The subconfluent, contractile HL-1 cardiomyocytes are placed in nutrient-deficiency medium containing 2.5 mM hydrogen peroxide solution in order to enhance the oxidative stress in HL-1 cells. In control cultures the medium exchange is carried out with standard supplemented Claycomb-medium. 8 h after ischemia induction samples are harvested and revitalization is induced in parallel by replacing nutrient-deficiency medium with fresh Claycomb-medium and incubating cells for another 16 hours. Cell proliferation analysis is done by flow cytometry. Apoptosis analysis is performed by terminal desoxynucleotidyl transferase-mediated dUTP nick end-labeling. Total number of cells are determined using 7-AAD nucleus staining. Additionally formaldehyde-fixed cells on glass coverslips are prepared for immuncytochemical staining.

90% hepatectomy = test: Acute liver damage after 90% hepatectomy; type: in vivo, Male Wister rats
Description: Male Wister rats weighing 230-260 g are obtained. After an overnight fast, GGA or a GGA derivative (as an emulsion with 5% gum arabic and 0.004% α-tocophenol) or vehicle (5% gum arabic emulsion with 0.004% α-tocophenol) is intragastrically administrated into rats 4 h prior to the operation. After rats are anesthetized, 90% hepatectomy is performed. Briefly, the left, median, right-upper, and right-lower lobes are removed, leaving the caudate lobes, which represent 10-11% of the original liver mass. Liver specimens and blood samples are collected after laparotomy and exsanguinations under deep anesthesia immediately before (0) and 4,8, 12, and 24 h after the operation. Small pieces of liver tissue are immediately stored in an RNeasy stabilization kit (Qiagen, Hilden, Germany). Sera are immediately separated, and the activities of alanine (ALT) and aspartate (AST) aminotransferases are measured.

DSS-induced colitis = test: Dextran sulfate sodium (DSS)-induced colitis; type: in vivo, BALB/c mice
Description: BALB/c mice are given 3% DSS solution orally for 7 days to induce colitis. The disease activity of colitis is assessed clinically every day, and histology in the colon is evaluated at 7 days post-DSS. The levels of myeloperoxidase (MPO) activity, tumor necrosis factor (TNF)-alpha and interferon (IFN)-gamma in the colon tissues are also examined. In addition, expression of HSPs 25, 40, 70 and 90 in the colon tissue is determined by Western blot analysis or ELISA. GGA or a GGA derivative is administered orally to mice when treatment of DSS is initiated.

[2] = system: heterotopically transplanted hearts; test: Heterotopically transplanted hearts; type: in vivo, rats; settings: 24 h after transplantation
Description: A total of 20 donor rats are randomly divided into 2 groups. One of those receives an oral dose of GGA or a GGA derivative and one is a control group. […] The levels of HSP70 expression in donor hearts and the variation of myocardial enzymes in receptor blood or donor hearts are measured 24 h after transplantation. The donated hearts are also examined under a microscope for pathological changes. HSP70 expression is increase in the GGA-treated group.

[3] = system: mild to moderate IBD following gastrectomy; test: Treatment of IBD in gastrectomized patients; type: in vivo; settings: gastrectomized subjects, daily administration, 12 weeks
Description: (§1) A pharmaceutical composition comprising GGA or a GGA derivative as described herein is prepared. A subject is diagnosed with mild to moderate IBD following gastrectomy. […] Subjects are treated for 12 weeks. Subjects keep daily diaries and record the number and nature of bowel movements. The effect of the treatments is assessed by grading clinical symptoms of fecal blood, mucus, and urgency. In addition, sigmoidoscopic assessment and biopsies are performed, and efficacy of treatment assessed, based on grading of sigmoidoscopic and degree of histological inflammation in rectal biopsy specimens. Safety is assessed based on spontaneous side effect reporting.

mild to moderate IBD = test: Treatment of inflammatory bowel disease (IBD) in subjects; type: in vivo; settings: daily administration, 12 weeks
Description: as §1, with “IBD.” for “IBD following gastrectomy.”

[4] = system: human hepatoma (Bel-7402) cells; test: Acetaminophen-induced hepatotoxicity cytotoxicity assay with S9 mixture; type: cell-based; settings: cytotoxic concentration of acetaminophen, vs control conditions
Description: In order to test the protective activity of GGA and GGA derivatives from acetaminophen-induced hepatotoxicity, a cytotoxicity assay is employed using human hepatoma (Bel-7402) cells in the presence of S9 mixture. Cell viability and mitochondrial permeability transition (MPT) is assessed in the presence or absence of GGA or GGA derivatives in combination with a cytotoxic concentration of acetaminophen.

[5] = system: myocardial ischemia and reperfusion; test: Myocardial ischemia and reperfusion injury; type: in vivo, male rats; settings: once orally 24 h before 30 min ischemia, 4 h of reperfusion
Description: Lactate dehydrogenase (LDH), creatine kinase (CK), malondialdehyde (MDA), superoxide dismutase (SOD) activity and infarct size are measured.

HSP70 [6] = test: Time course of HSP70 expression by western blot in cortex and hippocampus after oral CNS-102; type: in vivo; design: HSP70 expression (western blot), treatment average: scale not given here
Description: The time course of protein expression, as measured by western blot for HSP70, was determined in triplicate for hippocampus, and cortex tissue samples taken from each of 5 animals per group at each of four time points (24, 48, 72, and 96 h) after treatment with either PBS or 12 mg/kg CNS-102, administered orally. The average expression for each treatment group is calculated at each time point for each tissue using PROC MIXED in SAS and are tabulated, along with the difference (delta) between treatment averages and a p-value comparing the difference to zero, below.

HSP70 [7] = test: Time course of HSP70 expression by ELISA in select tissues after oral CNS-102; type: in vivo, Sprague-Dawley rats; settings: 12 mg/kg p.o
Description: CNS-102 at 12 mg/kg or PBS was administered orally to Sprague-Dawley rats and the time course of HSP70 protein expression in tissues, was measured by ELISA. HSP70 protein expression was determined for lung, testicle, spleen, liver, kidney, blood plasma, skin, peripheral blood monocytes, heart, eye, muscle, intestine, and stomach at each of three time points (8 h, 17 h, 24 h).

[8] = single oral administration 4 h prior to operation, vs vehicle

CC(=O)CC/C=C(/C)CC/C=C(\C)CC/C=C(\C)CCC=C(C)C (single isomer, unassigned) [cis-isomer of GGA, 5Z, 9E, 13E geranylgeranyl acetone]
pharmacological activity and dose-dependent relationship [1]: at best of minimal activity

CC(=O)CC/C=C(\C)CC/C=C(\C)CC/C=C(\C)CCC=C(C)C (single isomer, unassigned) [trans-isomer of GGA, 5E, 9E, 13E geranylgeranyl acetone]
pharmacological activity and dose-dependent relationship [1]: pharmacologically active and shows a dose-dependent relationship

CC(=O)CC/C=C(\C)CC/C=C(\C)CC/C=C(\C)CCC=C(C)C [GGA, Geranylgeranyl acetone]
HSP70 levels (ELISA) (IEC-18 cells): rapidly elevates HSP70 levels
protection against NH2Cl-induced injury (cell viability) (IEC-18 cells): protects against NH2Cl-induced injury
ischemia induced apoptosis (TUNEL) (HL-1 cardiomyocytes): reduce ischemia induced apoptosis
ischemia-induced reduction of cell proliferation (HL-1 cardiomyocytes): rescue ischemia-induced reduction of cell proliferation
chaperone induction in liver (gene expression and immunoblot): HSP70, HSP27, BIP (90% hepatectomy; after 90% hepatectomy): induce an endoplasmic reticulum chaperone, BIP
release of aminotransferases (ALT, AST) (90% hepatectomy; [8]): significantly suppresses
survival (90% hepatectomy; [8]): improves survival
expression of HSP70 in the colon (DSS-induced colitis; mice given DSS): enhances
clinical severity of colitis (DSS-induced colitis; oral, 3% DSS for 7 days): significantly reduces
level of IFN-gamma in the colon (DSS-induced colitis; oral, 3% DSS for 7 days): suppresses
level of MPO activity in the colon (DSS-induced colitis; oral, 3% DSS for 7 days): suppresses
level of TNF-alpha in the colon (DSS-induced colitis; oral, 3% DSS for 7 days): suppresses
Lactate dehydrogenase concentration in receptor blood ([2]; vs control group): decreased
atriphosphate concentration ([2]; vs control group): higher
creatine kinase muscle band concentration in receptor blood ([2]; vs control group): decreased
malondialdehyde concentration ([2]; vs control group): lower
HSP70 expression in donor hearts ([2]; oral dose to donor 24 h before transplantation): increase
efficacy in inflammatory bowel disease (treating the condition and maintaining remission) [3]: demonstrate efficacy
efficacy in inflammatory bowel disease (treating the condition and maintaining remission) (mild to moderate IBD): demonstrate efficacy
cell viability [4]: increased cell viability
decrease in SOD levels [5]: significantly inhibits
increase in MDA levels [5]: significantly inhibits
infarct size [5]: significantly reduces
level of CK [5]: significantly reduces
level of LDH [5]: significantly reduces

CC(=O)CC/C=C(\C)CC/C=C(\C)CC/C=C(\C)CCC=C(C)C [CNS-102]
HSP70 expression (western blot), treatment average (HSP70 [6]; cortex, 24 hours after 12 mg/kg oral): −0.016
HSP70 expression (western blot), treatment average (HSP70 [6]; cortex, 48 hours after 12 mg/kg oral): −0.45
HSP70 expression, delta CNS-102 vs PBS (HSP70 [6]; cortex, 48 hours, 12 mg/kg oral, p-value 0.15): 0.11
HSP70 expression (western blot), treatment average (HSP70 [6]; cortex, 72 hours after 12 mg/kg oral): 0.14
HSP70 expression, delta CNS-102 vs PBS (HSP70 [6]; cortex, 72 hours, 12 mg/kg oral, p-value 0.13): 0.13
HSP70 expression (western blot), treatment average (HSP70 [6]; cortex, 96 hours after 12 mg/kg oral): 0.04
HSP70 expression, delta CNS-102 vs PBS (HSP70 [6]; cortex, 96 hours, 12 mg/kg oral, p-value 0.09): 0.19
levels of HSP70 in the cortex after 24 h (HSP70 [6]; cortex, time points after 24 h, 12 mg/kg oral): No significant levels
time of peak HSP70 expression in the hippocampus (HSP70 [6]; hippocampus, 12 mg/kg oral): > 48 h
HSP70 expression (western blot), treatment average (HSP70 [6]; hippocampus, 24 hours after 12 mg/kg oral): −0.159
HSP70 expression, delta CNS-102 vs PBS (HSP70 [6]; hippocampus, 24 hours, 12 mg/kg oral, p-value 0.16): −0.088
HSP70 expression (western blot), treatment average (HSP70 [6]; hippocampus, 48 hours after 12 mg/kg oral): 0.02
HSP70 expression, delta CNS-102 vs PBS (HSP70 [6]; hippocampus, 48 hours, 12 mg/kg oral, p-value 0.14): 0.2
HSP70 expression (western blot), treatment average (HSP70 [6]; hippocampus, 72 hours after 12 mg/kg oral): −0.06
HSP70 expression (western blot), treatment average (HSP70 [6]; hippocampus, 96 hours after 12 mg/kg oral): −0.32
HSP70 expression, delta CNS-102 vs PBS (HSP70 [6]; hippocampus, 96 hours, 12 mg/kg oral, p-value 0.07): 0.17
HSP70 Fold Induction vs. Vehicle Control (HSP70 [7]; Intestine, 8 h): 1.63 fold
HSP70 Fold Induction vs. Vehicle Control (HSP70 [7]; Intestine, 17 h): 1.26 fold
HSP70 Fold Induction vs. Vehicle Control (HSP70 [7]; Intestine, 24 h): 0.64 fold
HSP70 Fold Induction vs. Vehicle Control (HSP70 [7]; PBMC, 8 h): 1.67 fold
HSP70 Fold Induction vs. Vehicle Control (HSP70 [7]; PBMC, 17 h): 1.05 fold
HSP70 Fold Induction vs. Vehicle Control (HSP70 [7]; PBMC, 24 h): 1.09 fold
HSP70 Fold Induction vs. Vehicle Control (HSP70 [7]; Stomach, 8 h): 1.07 fold
HSP70 Fold Induction vs. Vehicle Control (HSP70 [7]; Stomach, 17 h): 1.30 fold
HSP70 Fold Induction vs. Vehicle Control (HSP70 [7]; Stomach, 24 h): 0.96 fold
HSP70 Fold Induction vs. Vehicle Control (HSP70 [7]; heart, 17 h): 1.89 fold
HSP70 Fold Induction vs. Vehicle Control (HSP70 [7]; heart, 24 h): 0.60 fold
HSP70 Fold Induction vs. Vehicle Control (HSP70 [7]; kidney, 8 h): 1.11 fold
HSP70 Fold Induction vs. Vehicle Control (HSP70 [7]; kidney, 17 h): 1.08 fold
HSP70 Fold Induction vs. Vehicle Control (HSP70 [7]; kidney, 24 h): 0.92 fold
HSP70 Fold Induction vs. Vehicle Control (HSP70 [7]; liver, 8 h): 1.24 fold
HSP70 Fold Induction vs. Vehicle Control (HSP70 [7]; liver, 17 h): 1.00 fold
HSP70 Fold Induction vs. Vehicle Control (HSP70 [7]; liver, 24 h): 0.89 fold
HSP70 Fold Induction vs. Vehicle Control (HSP70 [7]; plasma, 8 h): 0.88 fold
HSP70 Fold Induction vs. Vehicle Control (HSP70 [7]; plasma, 17 h): 1.09 fold
HSP70 Fold Induction vs. Vehicle Control (HSP70 [7]; plasma, 24 h): 1.05 fold
HSP70 Fold Induction vs. Vehicle Control (HSP70 [7]; spleen, 8 h): 0.64 fold
HSP70 Fold Induction vs. Vehicle Control (HSP70 [7]; spleen, 17 h): 1.09 fold
HSP70 Fold Induction vs. Vehicle Control (HSP70 [7]; spleen, 24 h): 1.04 fold
HSP70 Fold Induction vs. Vehicle Control (HSP70 [7]; testicle, 8 h): 1.10 fold
HSP70 Fold Induction vs. Vehicle Control (HSP70 [7]; testicle, 17 h): 1.03 fold
HSP70 Fold Induction vs. Vehicle Control (HSP70 [7]; testicle, 24 h): 0.94 fold
